Assay results: ChEMBL document CHEMBL4152385, “Synthesis, Receptor Affinity, and Antiallodynic Activity of Spirocyclic σ Receptor Ligands with Exocyclic Amino Moiety” (J Med Chem, 2018)
The source made the active and inactive calls. The calls are words filed in the database; no cut-off is given here.

How the values were obtained:
[1] = biological target: T1, Sigma intracellular receptor 2 (Rattus norvegicus, UniProt Q5U3Y7); assay: Displacement of [3H]-di-o-tolylguanidine from sigma2 receptor in rat liver membranes incubated for 120 mins by scintillation counting method; format: cell membranes, Membrane
T1 sequence (Q5U3Y7 whole entry): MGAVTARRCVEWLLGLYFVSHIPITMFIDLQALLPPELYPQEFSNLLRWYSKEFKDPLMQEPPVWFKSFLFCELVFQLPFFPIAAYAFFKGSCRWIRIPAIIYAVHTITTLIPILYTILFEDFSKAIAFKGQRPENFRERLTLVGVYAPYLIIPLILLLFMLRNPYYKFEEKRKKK

[2] = biological target: Sigma non-opioid intracellular receptor 1 (Cavia porcellus, UniProt Q60492); assay: Displacement of [3H]-(+)-pentazocine from sigma1 receptor in guinea pig brain cortex membranes incubated for 120 mins by scintillation counting method; format: cell membranes
[3] = biological target: T1, Sigma intracellular receptor 2; assay: Displacement of [3H]-DTG from sigma2 receptor in rat liver membranes; format: cell membranes, Membrane
[4] = system: Mus musculus; assay: Antiallodynic activity in CD1 mouse model of capsaicin-induced mechanical allodynia assessed as effect on paw withdrawal latency time at 2 to 64 mg/kg, sc administered 30 mins before capsaicin addition and measured at 30 secs intervals; format: functional, organism-based
[5] = system: Mus musculus; assay: Antiallodynic activity in CD1 mouse model of capsaicin-induced mechanical allodynia assessed as effect on paw withdrawal latency time at 4 to 64 mg/kg, sc administered 30 mins before capsaicin addition and measured at 30 secs intervals; format: functional, organism-based
[6] = biological target: Kappa-type opioid receptor (Cavia porcellus, UniProt P41144); assay: Displacement of [3H]U-69,593 from KOR in guinea pig brain membranes incubated for 120 mins by scintillation counting method; format: cell membranes, Membrane
[7] = Displacement of [3H]-(+)-MK-801 from NMDA PCP binding site in pig brain cortex membrane incubated for 120 mins by scintillation counting method; format: cell membranes, Sus scrofa
[8] = biological target: Glutamate receptor ionotropic, NMDA 2B (Homo sapiens, UniProt Q13224); assay: Displacement of [3H]ifenprodil from GluN2B (unknown origin) expressed in mouse L(tk-) cell membranes incubated for 120 mins by scintillation counting method
[9] = biological target: Voltage-gated inwardly rectifying potassium channel KCNH2 (Homo sapiens, UniProt Q12809); assay: Inhibition of human ERG expressed in CHO cells by automated patch clamp assay; format: cell-based
[10] = biological target: T2, Alpha-1A adrenergic receptor (Homo sapiens) (UniProt P35348); assay: Inhibition of alpha-1A adrenergic receptor (unknown origin) at 1 uM relative to control
T2 sequence (whole entry): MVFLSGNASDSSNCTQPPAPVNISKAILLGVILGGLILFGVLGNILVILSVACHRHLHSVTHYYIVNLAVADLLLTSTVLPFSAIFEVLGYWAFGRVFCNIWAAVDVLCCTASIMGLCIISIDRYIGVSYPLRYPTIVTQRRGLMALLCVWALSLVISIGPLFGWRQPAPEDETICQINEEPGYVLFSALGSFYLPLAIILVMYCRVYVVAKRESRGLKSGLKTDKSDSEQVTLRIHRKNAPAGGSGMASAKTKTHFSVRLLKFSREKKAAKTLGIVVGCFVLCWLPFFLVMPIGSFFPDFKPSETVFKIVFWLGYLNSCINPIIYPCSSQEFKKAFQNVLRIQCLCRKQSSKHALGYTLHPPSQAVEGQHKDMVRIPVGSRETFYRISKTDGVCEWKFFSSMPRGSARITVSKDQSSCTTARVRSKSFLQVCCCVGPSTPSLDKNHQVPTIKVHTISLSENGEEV

[11] = biological target: Histamine H1 receptor (Homo sapiens) (UniProt P35367); assay: Inhibition of histamine H1 receptor (unknown origin) at 1 uM relative to control
[12] = biological target: T3, 5-hydroxytryptamine receptor 1A (Homo sapiens) (UniProt P08908); assay: Inhibition of 5-HT1A receptor (unknown origin) at 1 uM relative to control
T3 sequence (whole entry): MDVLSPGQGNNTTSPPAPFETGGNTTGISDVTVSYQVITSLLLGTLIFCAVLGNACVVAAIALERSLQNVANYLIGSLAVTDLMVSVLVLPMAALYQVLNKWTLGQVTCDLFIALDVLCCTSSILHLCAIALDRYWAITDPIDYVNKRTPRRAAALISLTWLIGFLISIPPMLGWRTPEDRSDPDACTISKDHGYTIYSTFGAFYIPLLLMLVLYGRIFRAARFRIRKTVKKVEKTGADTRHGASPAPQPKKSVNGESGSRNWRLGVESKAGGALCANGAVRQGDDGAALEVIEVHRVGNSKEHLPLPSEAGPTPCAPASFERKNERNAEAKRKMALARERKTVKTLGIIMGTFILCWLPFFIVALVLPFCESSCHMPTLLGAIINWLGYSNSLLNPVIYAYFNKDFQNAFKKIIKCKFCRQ

[13] = biological target: 5-hydroxytryptamine receptor 2B (Homo sapiens) (UniProt P41595); assay: Inhibition of 5-HT2B receptor (unknown origin) at 1 uM relative to control
[14] = biological target: Sodium-dependent noradrenaline transporter (Homo sapiens) (UniProt P23975); assay: Inhibition of NET (unknown origin) at 1 uM relative to control
[15] = biological target: Sodium-dependent dopamine transporter (Homo sapiens) (UniProt Q01959); assay: Inhibition of DAT (unknown origin) at 1 uM relative to control
[16] = biological target: Sodium-dependent serotonin transporter (Homo sapiens) (UniProt P31645); assay: Inhibition of SERT (unknown origin) at 1 uM relative to control
[17] = Stability in pH 2 aqueous HCl solution assessed as parent compound remaining after 24 hrs by HPLC; format: physicochemical; conditions: buffer, pH 2, 24 h
[18] = Stability in pH 7.4 phosphate buffer assessed as parent compound remaining after 24 hrs by HPLC; format: physicochemical; conditions: pH 7.4, 24 h

Sigma non-opioid intracellular receptor 1, sequence (Q60492 whole entry): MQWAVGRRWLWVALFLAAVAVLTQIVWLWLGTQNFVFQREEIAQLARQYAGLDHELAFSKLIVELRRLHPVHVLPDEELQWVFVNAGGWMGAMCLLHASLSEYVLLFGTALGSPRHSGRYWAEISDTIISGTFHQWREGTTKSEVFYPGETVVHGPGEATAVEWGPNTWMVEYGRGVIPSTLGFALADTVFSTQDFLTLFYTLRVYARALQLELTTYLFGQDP
Sodium-dependent dopamine transporter (Homo sapiens), sequence (Q01959 whole entry): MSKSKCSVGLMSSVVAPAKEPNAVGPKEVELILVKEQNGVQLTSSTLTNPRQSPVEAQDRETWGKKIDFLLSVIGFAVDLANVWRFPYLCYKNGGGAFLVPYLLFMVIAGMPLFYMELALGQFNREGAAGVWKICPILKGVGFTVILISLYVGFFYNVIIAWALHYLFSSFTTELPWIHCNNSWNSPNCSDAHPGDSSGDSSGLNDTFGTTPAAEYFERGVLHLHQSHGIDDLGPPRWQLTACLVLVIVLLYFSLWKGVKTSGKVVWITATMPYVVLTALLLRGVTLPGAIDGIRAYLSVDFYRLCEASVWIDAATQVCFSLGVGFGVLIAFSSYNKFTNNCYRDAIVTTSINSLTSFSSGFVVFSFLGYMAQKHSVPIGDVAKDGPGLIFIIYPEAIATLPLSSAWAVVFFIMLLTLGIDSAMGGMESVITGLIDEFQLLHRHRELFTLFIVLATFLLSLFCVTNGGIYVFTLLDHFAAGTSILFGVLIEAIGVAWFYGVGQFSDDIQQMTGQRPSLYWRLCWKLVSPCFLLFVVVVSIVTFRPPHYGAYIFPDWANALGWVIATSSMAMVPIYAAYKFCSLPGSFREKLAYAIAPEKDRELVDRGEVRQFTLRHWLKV
Kappa-type opioid receptor, sequence (P41144 whole entry): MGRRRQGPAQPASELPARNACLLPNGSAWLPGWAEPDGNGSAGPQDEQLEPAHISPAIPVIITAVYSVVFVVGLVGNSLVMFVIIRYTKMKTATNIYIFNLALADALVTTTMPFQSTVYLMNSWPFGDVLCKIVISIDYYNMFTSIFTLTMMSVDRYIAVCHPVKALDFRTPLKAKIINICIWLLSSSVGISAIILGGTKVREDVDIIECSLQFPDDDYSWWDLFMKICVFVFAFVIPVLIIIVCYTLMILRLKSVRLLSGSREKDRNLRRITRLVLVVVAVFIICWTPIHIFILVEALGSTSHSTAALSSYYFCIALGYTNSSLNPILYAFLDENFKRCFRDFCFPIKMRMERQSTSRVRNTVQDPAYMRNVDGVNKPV
Sodium-dependent serotonin transporter (Homo sapiens), sequence (P31645 whole entry, looked up): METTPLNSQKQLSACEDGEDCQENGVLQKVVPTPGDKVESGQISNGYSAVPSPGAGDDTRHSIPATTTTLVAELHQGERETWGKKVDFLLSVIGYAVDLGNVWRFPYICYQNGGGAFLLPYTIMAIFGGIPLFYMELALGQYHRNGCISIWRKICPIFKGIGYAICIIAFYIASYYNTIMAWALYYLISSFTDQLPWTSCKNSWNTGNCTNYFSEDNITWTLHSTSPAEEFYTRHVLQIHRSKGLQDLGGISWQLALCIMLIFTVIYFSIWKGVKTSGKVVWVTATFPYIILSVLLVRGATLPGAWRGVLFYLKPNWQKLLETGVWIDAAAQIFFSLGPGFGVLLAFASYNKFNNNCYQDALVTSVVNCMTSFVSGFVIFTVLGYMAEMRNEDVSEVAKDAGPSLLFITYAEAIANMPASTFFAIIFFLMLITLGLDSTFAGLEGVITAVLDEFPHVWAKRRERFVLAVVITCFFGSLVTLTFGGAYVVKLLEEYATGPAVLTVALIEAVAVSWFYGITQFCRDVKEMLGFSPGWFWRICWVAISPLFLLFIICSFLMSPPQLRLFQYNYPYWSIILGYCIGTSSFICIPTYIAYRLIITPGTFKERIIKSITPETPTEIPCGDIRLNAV
5-hydroxytryptamine receptor 2B (Homo sapiens), sequence (P41595 whole entry): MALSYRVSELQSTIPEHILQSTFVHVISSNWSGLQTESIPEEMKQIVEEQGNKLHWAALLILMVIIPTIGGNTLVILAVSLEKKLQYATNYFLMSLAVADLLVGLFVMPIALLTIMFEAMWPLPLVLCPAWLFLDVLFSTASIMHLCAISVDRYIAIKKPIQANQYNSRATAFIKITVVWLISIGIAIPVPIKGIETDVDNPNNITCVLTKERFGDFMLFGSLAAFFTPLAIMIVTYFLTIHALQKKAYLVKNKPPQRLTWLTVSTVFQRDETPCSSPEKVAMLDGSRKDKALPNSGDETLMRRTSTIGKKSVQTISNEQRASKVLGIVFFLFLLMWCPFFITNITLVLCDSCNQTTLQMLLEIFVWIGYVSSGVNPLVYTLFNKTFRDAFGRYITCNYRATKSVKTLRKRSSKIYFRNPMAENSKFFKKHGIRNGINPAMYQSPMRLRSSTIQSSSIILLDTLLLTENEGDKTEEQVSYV
Voltage-gated inwardly rectifying potassium channel KCNH2, sequence (Q12809 whole entry): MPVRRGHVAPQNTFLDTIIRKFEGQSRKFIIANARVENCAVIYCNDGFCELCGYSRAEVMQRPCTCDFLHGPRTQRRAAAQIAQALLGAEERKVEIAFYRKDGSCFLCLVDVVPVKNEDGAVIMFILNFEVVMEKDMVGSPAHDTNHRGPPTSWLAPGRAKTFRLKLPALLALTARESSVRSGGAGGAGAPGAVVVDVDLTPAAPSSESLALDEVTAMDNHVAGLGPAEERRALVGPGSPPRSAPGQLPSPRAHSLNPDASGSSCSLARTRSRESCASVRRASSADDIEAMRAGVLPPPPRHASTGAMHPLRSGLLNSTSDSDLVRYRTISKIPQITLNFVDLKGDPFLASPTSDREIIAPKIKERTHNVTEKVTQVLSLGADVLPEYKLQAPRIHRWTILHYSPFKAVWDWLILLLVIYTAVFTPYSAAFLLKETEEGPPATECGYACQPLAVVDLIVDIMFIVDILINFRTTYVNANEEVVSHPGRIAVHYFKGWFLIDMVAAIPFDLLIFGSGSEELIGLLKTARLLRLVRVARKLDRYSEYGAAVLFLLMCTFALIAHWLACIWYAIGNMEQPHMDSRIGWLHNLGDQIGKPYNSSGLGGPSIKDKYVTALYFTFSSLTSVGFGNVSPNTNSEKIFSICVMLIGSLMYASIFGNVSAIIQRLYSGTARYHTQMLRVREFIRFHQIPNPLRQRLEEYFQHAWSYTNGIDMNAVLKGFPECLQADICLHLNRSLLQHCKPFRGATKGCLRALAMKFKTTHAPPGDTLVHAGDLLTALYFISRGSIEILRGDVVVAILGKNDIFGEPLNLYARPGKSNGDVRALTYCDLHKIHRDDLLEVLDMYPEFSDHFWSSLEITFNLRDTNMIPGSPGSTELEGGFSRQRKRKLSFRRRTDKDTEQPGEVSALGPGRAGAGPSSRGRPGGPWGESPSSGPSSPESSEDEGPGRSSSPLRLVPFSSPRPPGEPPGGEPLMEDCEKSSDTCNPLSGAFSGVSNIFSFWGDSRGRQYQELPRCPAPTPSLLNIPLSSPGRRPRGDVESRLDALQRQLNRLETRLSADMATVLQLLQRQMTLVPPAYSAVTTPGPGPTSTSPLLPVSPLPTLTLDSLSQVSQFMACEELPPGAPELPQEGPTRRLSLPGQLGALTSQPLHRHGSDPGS
Sodium-dependent noradrenaline transporter (Homo sapiens), sequence (P23975 whole entry): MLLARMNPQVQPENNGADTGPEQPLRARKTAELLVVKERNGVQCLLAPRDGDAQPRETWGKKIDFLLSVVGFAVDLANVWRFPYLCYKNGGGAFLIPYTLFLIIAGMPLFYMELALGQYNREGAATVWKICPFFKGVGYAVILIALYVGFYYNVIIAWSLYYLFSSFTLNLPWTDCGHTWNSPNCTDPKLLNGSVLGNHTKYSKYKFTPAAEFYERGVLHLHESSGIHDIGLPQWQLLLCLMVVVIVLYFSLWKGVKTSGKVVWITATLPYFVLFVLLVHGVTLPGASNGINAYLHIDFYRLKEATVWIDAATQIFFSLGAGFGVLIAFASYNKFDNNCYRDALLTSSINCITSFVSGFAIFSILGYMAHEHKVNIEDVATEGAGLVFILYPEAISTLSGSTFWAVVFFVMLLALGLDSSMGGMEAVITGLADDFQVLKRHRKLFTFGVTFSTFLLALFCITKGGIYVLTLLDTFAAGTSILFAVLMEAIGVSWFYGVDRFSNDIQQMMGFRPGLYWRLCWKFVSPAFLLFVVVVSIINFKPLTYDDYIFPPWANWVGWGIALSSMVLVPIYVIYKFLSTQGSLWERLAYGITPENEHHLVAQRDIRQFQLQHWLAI
Histamine H1 receptor (Homo sapiens), sequence (P35367 whole entry): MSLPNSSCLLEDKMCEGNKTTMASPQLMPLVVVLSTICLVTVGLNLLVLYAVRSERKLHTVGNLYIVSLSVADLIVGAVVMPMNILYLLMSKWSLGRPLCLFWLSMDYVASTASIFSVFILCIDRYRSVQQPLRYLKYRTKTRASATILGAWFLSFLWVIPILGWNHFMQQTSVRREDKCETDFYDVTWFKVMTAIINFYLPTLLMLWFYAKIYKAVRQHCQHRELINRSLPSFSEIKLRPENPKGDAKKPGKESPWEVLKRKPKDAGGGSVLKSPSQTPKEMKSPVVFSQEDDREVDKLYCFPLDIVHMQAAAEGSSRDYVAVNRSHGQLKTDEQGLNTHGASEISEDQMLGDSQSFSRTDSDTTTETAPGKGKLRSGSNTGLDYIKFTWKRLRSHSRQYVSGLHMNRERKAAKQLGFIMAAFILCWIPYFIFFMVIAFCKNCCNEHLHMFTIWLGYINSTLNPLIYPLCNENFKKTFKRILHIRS

Compound | Ki [1] | Ki [2] | other results
CO[C@H]1Cc2ccccc2C2(CCC(NCc3ccc(C)cc3C)CC2)O1 (some centres undefined) | 0.054 µM |  | 
COc1cc2c(cc1OC)CN(C1CCC3(CC1)O[C@@H](OC)Cc1ccccc13)CC2 (some centres undefined) | 0.105 µM |  | 
CO[C@H]1Cc2ccccc2C2(CCC(NCCCc3cn(-c4ccc(F)cc4)c4ccccc34)CC2)O1 (some centres undefined) |  | 0.635 µM | 
CO[C@H]1Cc2ccccc2C2(CCC(NCc3ccccc3)CC2)O1 (some centres undefined) |  | 0.158 µM | 
CCOC(=O)C[C@@H]1Cc2ccccc2C2(CCC(NCc3ccc(C)cc3C)CC2)O1 (some centres undefined) | 0.231 µM |  | 
FCC[C@@H]1Cc2ccccc2C2(CCC(NC3CCc4ccccc4CC3)CC2)O1 (some centres undefined) | 0.305 µM | 0.667 µM | 
OCC[C@@H]1Cc2ccccc2C2(CCC(N3CCN(C4CCCCC4)CC3)CC2)O1 (some centres undefined) | 0.172 µM | 0.061 µM | 
COc1cc2c(cc1OC)CN(CCCCNC(=O)c1cc(Br)cc(OC)c1OC)CC2 | 0.0082 µM |  | Ki [3]: 0.0082 µM
CO[C@@H]1Cc2ccccc2C2(CCC(NC3CCc4ccccc4CC3)CC2)O1 (some centres undefined) | 0.049 µM |  | 
Cc1ccc(CNC2CCC3(CC2)O[C@H](O)Cc2ccccc23)c(C)c1 (some centres undefined) | 0.181 µM | 0.349 µM | 
O[C@@H]1Cc2ccccc2C2(CCC(N3CCN(C4CCCCC4)CC3)CC2)O1 (some centres undefined) |  | 0.077 µM | 
FCC[C@H]1Cc2ccccc2C2(CCC(NC3CCc4ccccc4CC3)CC2)O1 (some centres undefined) | 0.527 µM | 0.198 µM | 
COc1cc2c(cc1OC)CN(C1CCC3(CC1)O[C@H](O)Cc1ccccc13)CC2 (some centres undefined) | 0.099 µM | 0.583 µM | 
CN1CCN(CCc2ccc(Cl)c(Cl)c2)CC1 |  |  | Activity [4]: Active; Activity [5]: Active
CCOC(=O)C[C@H]1Cc2ccccc2C2(CCC(NCc3ccc(C)cc3C)CC2)O1 (some centres undefined) | 0.159 µM | 0.547 µM | 
O[C@H]1Cc2ccccc2C2(CCC(N3CCN(C4CCCCC4)CC3)CC2)O1 (some centres undefined) | 0.027 µM | 0.047 µM | Ki [6]: 0.781 µM; Ki [7]: > 1 µM; Ki [8]: 0.034 µM; IC50 [9]: 3.21 µM; inhibition [10]: < 50%; inhibition [11]: 76%; inhibition [12]: 55%; inhibition [13]: < 50%; inhibition [14]: < 50%; inhibition [15]: < 50%; inhibition [16]: < 50%; Stability [17]: Stable; Stability [18]: Stable
CCOC(=O)C[C@H]1Cc2ccccc2C2(CCC(N3CCc4cc(OC)c(OC)cc4C3)CC2)O1 (some centres undefined) | 0.343 µM |  | 
